Measured values as given in ChEMBL document CHEMBL3112508, “IV. Discovery of CXCR3 antagonists substituted with heterocycles as amide surrogates: improved PK, hERG and metabolic profiles” (Bioorg Med Chem Lett, 2014).

target: Voltage-gated inwardly rectifying potassium channel KCNH2 (Homo sapiens, UniProt Q12809); assay: Inhibition of human ERG channel by Rb efflux assay; conditions: not given
Sequence (Q12809 whole entry): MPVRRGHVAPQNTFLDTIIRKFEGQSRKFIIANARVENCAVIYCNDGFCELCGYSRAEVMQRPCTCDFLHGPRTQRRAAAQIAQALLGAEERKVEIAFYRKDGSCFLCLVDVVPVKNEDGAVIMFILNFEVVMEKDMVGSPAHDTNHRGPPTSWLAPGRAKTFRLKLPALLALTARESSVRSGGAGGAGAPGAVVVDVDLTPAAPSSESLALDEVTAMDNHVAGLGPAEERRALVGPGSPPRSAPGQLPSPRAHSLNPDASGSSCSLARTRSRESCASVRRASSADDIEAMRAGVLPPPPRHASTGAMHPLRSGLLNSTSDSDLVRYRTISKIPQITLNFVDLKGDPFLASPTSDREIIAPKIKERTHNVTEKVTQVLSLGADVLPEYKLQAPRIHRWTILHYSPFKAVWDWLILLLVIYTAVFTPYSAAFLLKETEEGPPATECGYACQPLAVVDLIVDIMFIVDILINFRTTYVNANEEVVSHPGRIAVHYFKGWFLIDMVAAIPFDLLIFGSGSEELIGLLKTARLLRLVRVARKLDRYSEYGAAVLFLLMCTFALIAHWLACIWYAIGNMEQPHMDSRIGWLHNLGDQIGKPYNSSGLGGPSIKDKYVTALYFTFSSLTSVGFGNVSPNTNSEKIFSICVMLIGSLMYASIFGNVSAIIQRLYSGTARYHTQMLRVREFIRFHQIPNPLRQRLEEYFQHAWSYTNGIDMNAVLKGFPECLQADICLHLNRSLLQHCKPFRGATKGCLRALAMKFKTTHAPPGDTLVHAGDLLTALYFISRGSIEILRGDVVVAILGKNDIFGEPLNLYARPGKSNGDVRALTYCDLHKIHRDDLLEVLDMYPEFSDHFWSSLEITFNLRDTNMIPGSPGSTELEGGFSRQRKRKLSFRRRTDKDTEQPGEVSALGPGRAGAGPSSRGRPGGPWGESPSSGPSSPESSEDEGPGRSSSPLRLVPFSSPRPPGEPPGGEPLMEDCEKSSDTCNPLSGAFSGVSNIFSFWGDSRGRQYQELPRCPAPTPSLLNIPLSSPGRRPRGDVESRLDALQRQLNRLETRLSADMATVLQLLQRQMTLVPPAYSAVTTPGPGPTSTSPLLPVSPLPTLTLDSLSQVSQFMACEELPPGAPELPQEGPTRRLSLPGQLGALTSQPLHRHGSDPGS

Row | SMILES | inhibition (INH) [%]
1 | CCNc1nnc(-c2nc(Cl)c(N3CCN(C4CCN(C(=O)c5ccc(Cl)nc5N)CC4)[C@@H](CC)C3)nc2N)o1 | 26
2 | CCNc1nnc(-c2cnc(N3C[C@H](CC)N(C4CCN(C(=O)c5ccc(Cl)nc5N)CC4)C[C@H]3C)c(C)n2)o1 | 4
3 | CC[C@H]1CN(c2nc(N)c(-c3nnc(C)o3)nc2Cl)CCN1C1CCN(C(=O)c2ccc(Cl)nc2N)CC1 | 26
4 | CC[C@H]1CN(c2nc(N)c(-c3nnc(C)o3)nc2Cl)CCN1C1CCN(C(=O)c2ccc(Cl)cc2)CC1 | 85
5 | CC[C@H]1CN(c2ncc(-c3ncc[nH]3)nc2C)[C@H](C)CN1C1CCN(C(=O)c2ccc(Cl)nc2N)CC1 | 22
6 | CC[C@H]1CN(c2ncc(-c3nnc(NC)o3)nc2C)[C@H](C)CN1C1CCN(C(=O)c2ccc(Cl)cc2)CC1 | 17
7 | CCNc1nnc(-c2cnc(N3CCN(C4CCN(C(=O)c5ccc(Cl)nc5N)CC4)[C@@H](CC)C3)c(Cl)n2)o1 | 14
8 | CCNc1nnc(-c2cnc(N3C[C@H](CC)N(C4CCN(C(=O)c5ccc(Cl)cc5)CC4)C[C@H]3C)c(C(F)(F)F)n2)o1 | 27
9 | CC[C@H]1CN(c2nc(N)c(-c3nnc(N)o3)nc2Cl)CCN1C1CCN(C(=O)c2ccc(Cl)nc2N)CC1 | 7

tested on: Rattus norvegicus; assay: AUC in rat at 10 mg/kg, po after 6 hrs; format: ADME, organism-based, Plasma; parameters: time < 6 hr, dose 10 mg/kg, route oral; conditions: in vivo

Row | SMILES | AUC [uM.hr/ml]
10 | CCNc1nnc(-c2cnc(N3C[C@H](CC)N(C4CCN(C(=O)c5ccc(Cl)nc5N)CC4)C[C@H]3C)c(C)n2)o1 | 0.8
11 | CC[C@H]1CN(c2ncc(-c3ncc[nH]3)nc2C)[C@H](C)CN1C1CCN(C(=O)c2ccc(Cl)nc2N)CC1 | 0.3
12 | CC[C@H]1CN(c2ncc(-c3nnc(NC)o3)nc2C)[C@H](C)CN1C1CCN(C(=O)c2ccc(Cl)cc2)CC1 | 2.4
13 | CCNc1nnc(-c2cnc(N3CCN(C4CCN(C(=O)c5ccc(Cl)nc5N)CC4)[C@@H](CC)C3)c(Cl)n2)o1 | 1.4
14 | CCNc1nnc(-c2cnc(N3C[C@H](CC)N(C4CCN(C(=O)c5ccc(Cl)cc5)CC4)C[C@H]3C)c(C(F)(F)F)n2)o1 | 2.3

target: T1, C-X-C chemokine receptor type 3 (Homo sapiens, UniProt P49682); assay: Binding affinity to human CXCR3 receptor; conditions: not given
T1 sequence (P49682 whole entry): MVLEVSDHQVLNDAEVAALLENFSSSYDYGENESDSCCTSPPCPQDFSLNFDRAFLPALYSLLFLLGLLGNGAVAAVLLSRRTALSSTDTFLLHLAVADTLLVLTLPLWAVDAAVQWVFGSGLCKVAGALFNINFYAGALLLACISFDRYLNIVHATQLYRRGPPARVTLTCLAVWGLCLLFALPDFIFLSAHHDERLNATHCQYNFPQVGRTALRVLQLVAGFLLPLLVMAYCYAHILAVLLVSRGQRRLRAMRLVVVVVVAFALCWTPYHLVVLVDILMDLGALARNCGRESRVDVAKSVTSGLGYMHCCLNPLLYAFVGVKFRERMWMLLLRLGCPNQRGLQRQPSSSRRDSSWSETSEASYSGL

Row | SMILES | IC50 [nM]
15 | CC[C@H]1CN(c2ncc(-c3nnc[nH]3)cc2Cl)CCN1C1CCN(Cc2ccc(Cl)cc2F)CC1 | 6.8
16 | CC[C@H]1CN(c2ncc(-c3ncc[nH]3)cc2Cl)CCN1C1CCN(Cc2ccc(Cl)cc2F)CC1 | 0.3
17 | CC[C@H]1CN(c2ncc(C3=NCCN3)cc2Cl)CCN1C1CCN(Cc2ccc(Cl)cc2F)CC1 | 1.3
18 | CC[C@H]1CN(c2nc(N)c(-c3nnc(C)o3)nc2Cl)CCN1C1CCN(Cc2ccc(Cl)cc2)CC1 | 0.4
19 | CC[C@H]1CN(c2ncc(C#N)cc2Cl)CCN1C1CCN(Cc2ccc(Cl)cc2F)CC1 | 50.5
20 | CC[C@H]1CN(c2ncc(-c3noc(=O)[nH]3)cc2Cl)CCN1C1CCN(Cc2ccc(Cl)cc2F)CC1 | 760
21 | CC[C@H]1CN(c2ncc(-c3nnco3)cc2Cl)CCN1C1CCN(Cc2ccc(Cl)cc2F)CC1 | 1.4
22 | CC[C@H]1CN(c2ncc(-c3ncon3)cc2Cl)CCN1C1CCN(Cc2ccc(Cl)cc2F)CC1 | 286
23 | CC[C@H]1CN(c2ncc(-c3nnn[nH]3)cc2Cl)CCN1C1CCN(Cc2ccc(Cl)cc2F)CC1 | 1380
24 | CCNc1nnc(-c2nc(Cl)c(N3CCN(C4CCN(C(=O)c5ccc(Cl)nc5N)CC4)[C@@H](CC)C3)nc2N)o1 | 1
25 | CCNc1nnc(-c2cnc(N3C[C@H](CC)N(C4CCN(C(=O)c5ccc(Cl)nc5N)CC4)C[C@H]3C)c(C)n2)o1 | 3.4
26 | CC[C@H]1CN(c2nc(N)c(-c3nnc(C)o3)nc2Cl)CCN1C1CCN(C(=O)c2ccc(Cl)nc2N)CC1 | 2
27 | CC[C@H]1CN(c2nc(N)c(-c3nnc(C)o3)nc2Cl)CCN1C1CCN(C(=O)c2ccc(Cl)cc2)CC1 | 4.2
28 | CC[C@H]1CN(c2ncc(-c3ncc[nH]3)nc2C)[C@H](C)CN1C1CCN(C(=O)c2ccc(Cl)nc2N)CC1 | 1.8
29 | CC[C@H]1CN(c2ncc(-c3nnc(NC)o3)nc2C)[C@H](C)CN1C1CCN(C(=O)c2ccc(Cl)cc2)CC1 | 6.2
30 | CCNc1nnc(-c2cnc(N3CCN(C4CCN(C(=O)c5ccc(Cl)nc5N)CC4)[C@@H](CC)C3)c(Cl)n2)o1 | 0.8
31 | CCNc1nnc(-c2cnc(N3C[C@H](CC)N(C4CCN(C(=O)c5ccc(Cl)cc5)CC4)C[C@H]3C)c(C(F)(F)F)n2)o1 | 1.8
32 | CC[C@H]1CN(c2nc(N)c(-c3nnc(N)o3)nc2Cl)CCN1C1CCN(C(=O)c2ccc(Cl)nc2N)CC1 | 1.3
33 | CC[C@H]1CN(c2nc(N)c(-c3nnco3)nc2Cl)CCN1C1CCN(Cc2ccc(Cl)cc2)CC1 | 5.2

tested on: not listed separately; assay: (§1) AUC in rat at 10 mg/kg, po; format: ADME, organism-based, Plasma; parameters: dose 10 mg/kg, route oral; conditions: plasma

Row | SMILES | AUC [µM·h]
34 | CC[C@H]1CN(c2ncc(-c3nnco3)cc2Cl)CCN1C1CCN(Cc2ccc(Cl)cc2F)CC1 | 1.8

tested on: Rattus norvegicus; assay: as §1; format: ADME, organism-based, Plasma; parameters: dose 10 mg/kg, route oral; conditions: in vivo

Row | SMILES | AUC [uM.hr/ml]
35 | CC[C@H]1CN(c2nc(N)c(-c3nnc(C)o3)nc2Cl)CCN1C1CCN(Cc2ccc(Cl)cc2)CC1 | 1
36 | CCNc1nnc(-c2nc(Cl)c(N3CCN(C4CCN(C(=O)c5ccc(Cl)nc5N)CC4)[C@@H](CC)C3)nc2N)o1 | 16.6
37 | CCNc1nnc(-c2cnc(N3C[C@H](CC)N(C4CCN(C(=O)c5ccc(Cl)nc5N)CC4)C[C@H]3C)c(C)n2)o1 | 15.3
38 | CC[C@H]1CN(c2nc(N)c(-c3nnc(C)o3)nc2Cl)CCN1C1CCN(C(=O)c2ccc(Cl)nc2N)CC1 | 10.2
39 | CC[C@H]1CN(c2nc(N)c(-c3nnc(C)o3)nc2Cl)CCN1C1CCN(C(=O)c2ccc(Cl)cc2)CC1 | 3.9
40 | CC[C@H]1CN(c2ncc(-c3ncc[nH]3)nc2C)[C@H](C)CN1C1CCN(C(=O)c2ccc(Cl)nc2N)CC1 | 6.7
41 | CC[C@H]1CN(c2ncc(-c3nnc(NC)o3)nc2C)[C@H](C)CN1C1CCN(C(=O)c2ccc(Cl)cc2)CC1 | 18
42 | CCNc1nnc(-c2cnc(N3CCN(C4CCN(C(=O)c5ccc(Cl)nc5N)CC4)[C@@H](CC)C3)c(Cl)n2)o1 | 40.4
43 | CCNc1nnc(-c2cnc(N3C[C@H](CC)N(C4CCN(C(=O)c5ccc(Cl)cc5)CC4)C[C@H]3C)c(C(F)(F)F)n2)o1 | 9.9
44 | CC[C@H]1CN(c2nc(N)c(-c3nnc(N)o3)nc2Cl)CCN1C1CCN(C(=O)c2ccc(Cl)nc2N)CC1 | 0.3
